Results reported in patent US20230303540A1 (Merck Sharp & Dohme LLC, priority 2020, published 2023).

Molecular target: GST-tagged truncated human mutant G2019S LRRK2 (Homo sapiens, UniProt Q5S007, G2019S)
Assay: LRRK2 G2019S Km ATP LanthaScreen assay
Format: biochemical
Details: 134 μM ATP (Km ATP), LRRKtide substrate, mean IC50 values; read-out: LRRK2 pIC50 (converted)
Summary of the method: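 LanthaScreen TR-FRET read with fluorescein-LRRKtide and 134 μM ATP (Km) in Tris pH 8.5/10 mM MgCl2 buffer. The enzyme was preincubated 15 min with compound at room temperature, and the reaction ran 90 min at ambient temperature. Stopped with EDTA plus Tb anti-phospho-LRRKtide antibody; the 520/495 nm ratio gave a 4-parameter logistic IC50, mean of several runs.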

Cc1c(Nc2ncc3cc(Cl)c(N4CCN(C5COCC5O)CC4)nc3n2)cnn1C1CC1 (single isomer, unassigned) [Ex-16.3, (3S,4S) or (3R,4R)-4-(4-{6-chloro-2-[(1-cyclopropyl-5-methyl-1H-pyrazol-4-yl)amino]pyrido[2,3-d]pyrimidin-7-yl}piperazin-1-yl)oxolan-3-ol]
IC50: 4.55 nM

C[C@]1(O)[C@@H]2CC[C@H]1CN(c1cc3nc(Nc4cnn(C5CC5)c4Cl)ncc3cc1Cl)C2 [Ex-1.40, (8-syn)-3-{6-chloro-2-[(5-chloro-1-cyclopropyl-1H-pyrazol-4-yl)amino]quinazolin-7-yl}-8-methyl-3-azabicyclo[3.2.1]octan-8-ol]
IC50: 11.2 nM

Cn1cc(Nc2ncc3ccc(N4C(=O)C5CCC4C5)cc3n2)c(C(F)(F)F)n1 (stereo not drawn) [Ex-7.10, 2-(2-{[1-methyl-3-(trifluoromethyl)-1H-pyrazol-4-yl]amino}quinazolin-7-yl)-2-azabicyclo[2.2.1]heptan-3-one]
IC50: 5.14 nM

CN1CC2(C1)CN(c1cc3nc(Nc4cnn(C5(C)CC5)c4Cl)ncc3cc1Cl)C2 [Ex-4.37, 6-chloro-N-[5-chloro-1-(1-methylcyclopropyl)-1H-pyrazol-4-yl]-7-(6-methyl-2,6-diazaspiro[3.3.]heptan-2-yl)quinazolin-2-amine]
IC50: 1.24 nM

Clc1cc2cnc(Nc3cnn(C45CC(C4)C5)c3Cl)nc2cc1N1CCNCC1 [Ex-12.10, N-(1-(bicyclo[1.1.1]pentan-1-yl)-5-chloro-1H-pyrazol-4-yl)-6-chloro-7-(piperazin-1-yl)quinazolin-2-amine]
IC50: 2.13 nM

Cc1c(Nc2ncc3cc(Cl)c(N4CCN(C5COCC5O)CC4)cc3n2)cnn1CC(F)F (single isomer, unassigned) [Ex-6.26, (3S,4S) or (3R,4R) 4-[4-(6-chloro-2-{[1-(2,2-difluoroethyl)-5-methyl-1H-pyrazol-4-yl]amino}quinazolin-7-yl)piperazin-1-yl]oxolan-3-ol]
IC50: 11.5 nM

CCC1(N2CCN(c3cc4nc(Nc5cnn(C6CC6)c5Cl)ncc4cc3Cl)CC2)COC1 [Ex-4.30, 6-chloro-N-(5-chloro-1-cyclopropyl-1H-pyrazol-4-yl)-7-[4-(3-ethyloxetan-3-yl)piperazin-1-yl]quinazolin-2-amine]
IC50: 15.7 nM

CC(C)Nc1cc2nc(Nc3cnn(C4CCN(C5(C)COC5)CC4)c3Cl)ncc2cc1Cl [Ex-3.46]
IC50: 15 nM

C[C@@]1(N2CCN(c3cc4nc(Nc5cnn(C6CC6)c5C(F)F)ncc4cc3Cl)CC2)COC[C@@H]1O [Ex-6.56, (3R,4R)-4-(4-(6-chloro-2-((1-cyclopropyl-5-(difluoromethyl)-1H-pyrazol-4-yl)amino)quinazolin-7-yl)piperazin-1-yl)-4-methyltetrahydrofuran-3-ol]
IC50: 0.08 nM

Cc1c(Nc2ncc3cc(Cl)c(N4CCN(C5COCC5O)CC4)cc3n2)cnn1CC(F)(F)F (single isomer, unassigned) [Ex-6.37, (3S,4S) or (3R,4R) 4-[4-(6-chloro-2-{[5-methyl-1-(2,2,2-trifluoroethyl)-1H-pyrazol-4-yl]amino}quinazolin-7-yl)piperazin-1-yl]oxolan-3-ol]
IC50: 6.35 nM

CC(C)Nc1ccc2cnc(Nc3cnn(C4CCN(C5(C)COC5)CC4)c3Cl)nc2c1Cl [Ex-3.53, 8-chloro-N~2~-{5-chloro-1-[1-(3-methyloxetan-3-yl)piperidin-4-yl]-1H-pyrazol-4-yl}-N~7~- (propan-2-yl)quinazoline-2,7-diamine]
IC50: 6.88 nM

Cc1cc2cnc(Nc3cnn(C4CC4)c3Cl)nc2cc1N1CCN(C2COCC2O)CC1 (single isomer, unassigned) [Ex-5.8, (3S,4S) or (3R,4R) 4-(4-{2-[(5-chloro-1-cyclopropyl-1H-pyrazol-4-yl)amino]-6-methylquinazolin-7-yl}piperazin-1-yl)oxolan-3-ol]
IC50: 0.17 nM

CC1(O)CCN(c2cc3nc(Nc4cnn(C5CC5)c4)ncc3cc2Cl)CC1 [Ex-3.9, 1-{6-chloro-2-[(1-cyclopropyl-1H-pyrazol-4-yl)amino]quinazolin-7-yl}-4-methylpiperidin-4-ol]
IC50: 5.9 nM

CC1(N2CCN(c3cc4nc(Nc5cnn(CC6C[C@@H](F)[C@H](F)C6)c5)ncc4cc3Cl)CC2)COC1 [Ex-4.65, 6-chloro-N-(1-{[(3R,4R)-3,4-difluorocyclopentyl]methyl}-1H-pyrazol-4-yl)-7-[4-(3-methyloxetan-3-yl)piperazin-1-yl]quinazolin-2-amine]
IC50: 23.9 nM

CC1CN(C2CCN(c3cc4nc(Nc5cnn(C6(C)CC6)c5Cl)ncc4cc3Cl)CC2)C1 [Ex-4.43, 6-chloro-N-[5-chloro-1-(1-methylcyclopropyl)-1H-pyrazol-4-yl]-7-[4-(3-methylazetidin-1-yl)piperidin-1-yl]quinazolin-2-amine]
IC50: 3.52 nM

Cc1cc2cnc(Nc3cnn(C45CC(C4)C5)c3Cl)nc2cc1N1CC2(C1)CN(C1COCC1O)C2 (single isomer, unassigned) [Ex-5.16, (3R,4R) or (3S,4S) 4-(6-(2-((1-(bicyclo[1.1.1]pentan-1-yl)-5-chloro-1H-pyrazol-4-yl)amino)-6-methylquinazolin-7-yl)-2,6-diazaspiro[3.3]heptan-2-yl)tetrahydrofuran-3-ol]
IC50: 20.9 nM

CC1(N2CCN(c3cc4nc(Nc5ccnn5C(C)(C)C)ncc4cc3Cl)CC2)COCC1O (single isomer, unassigned) [Ex-6.48, (3S,4S) or (3R,4R) 4-(4-(2-((1-(tert-butyl)-1H-pyrazol-5-yl)amino)-6-chloroquinazolin-7-yl)piperazin-1-yl)-4-methyltetrahydrofuran-3-ol]
IC50: 11.4 nM

C[C@H]1COC(=O)N1c1ccc2cnc(Nc3cnsc3)nc2c1 [Ex-8.7, (4S)-4-methyl-3-{2-[(1,2-thiazol-4-yl)amino]quinazolin-7-yl}-1,3-oxazolidin-2-one]
IC50: 5.2 nM

Cc1cc2cnc(Nc3cnn(C45CC(C4)C5)c3Cl)nc2cc1N1CCN(C2(C)COCC2O)CC1 (single isomer, unassigned) [Ex-13.5, (3S,4S) or (3R, 4R)-4-(4-(2-((1-(bicyclo[1.1.1]pentan-1-yl)-5-chloro-1H-pyrazol-4-yl)amino)-6-methylquinazolin-7-yl)piperazin-1-yl)-4-methyltetrahydrofuran-3-ol]
IC50: 9.89 nM

Cn1nc(Cl)cc1Nc1ncc2cc(Cl)c(N3CCN(C4(C)COCC4O)CC3)cc2n1 (stereo not drawn)
IC50: 5.97 nM

CC1CN(C2COCC2O)CCN1c1cc2nc(Nc3cnn(C4CC4)c3Cl)ncc2cc1Cl (single isomer, unassigned) [Ex-12.8, (3S,4S) or (3R, 4R)-4-((R) or (S)-4-(6-chloro-2-((5-chloro-1-cyclopropyl-1H-pyrazol-4-yl)amino)quinazolin-7-yl)-3-methylpiperazin-1-yl)tetrahydrofuran-3-ol]
IC50: 0.088 nM

O[C@@H]1COCC12CCN(c1cc3nc(Nc4cnn(C5CC5)c4Cl)ncc3cc1Cl)CC2 [Ex-3.3]
IC50: 17.2 nM

Cc1c(Nc2ncc3cc(Cl)c(N4CCN(C5(C)COCC5O)CC4)cc3n2)cnn1C1CC1 (single isomer, unassigned) [Ex-6.18, (3S,4S) or (3R,4R) 4-(4-{6-chloro-2-[(1-cyclopropyl-5-methyl-1H-pyrazol-4-yl)amino]quinazolin-7-yl}piperazin-1-yl)-4-methyloxolan-3-ol]
IC50: 0.322 nM

Cc1cc2cnc(Nc3cnn(C)c3C)nc2cc1N1CCN(C2(C)COCC2O)CC1 (single isomer, unassigned) [Ex-2.2, (3S,4S or 3R,4R)-4-(4-{2-[(1,5-dimethyl-1H-pyrazol-4-yl)amino]-6-methylquinazolin-7-yl}piperazin-1-yl)-4-methyloxolane-3-ol]
IC50: 36 nM

CC1(N2CCN(c3cc4cc(Nc5cnn(C6CC6)c5Cl)ncc4cc3Cl)CC2)COCC1O (single isomer, unassigned) [Ex-6.54, (3S,4S) or (3R,4R) 4-(4-(7-chloro-3-((5-chloro-1-cyclopropyl-1H-pyrazol-4-yl)amino)isoquinolin-6-yl)piperazin-1-yl)-4-methyltetrahydrofuran-3-ol]
IC50: 1.21 nM

Cc1c(Nc2ncc3cc(Cl)c(N4CCC(C)(O)C(C)C4)cc3n2)cnn1C1CC1 (single isomer, unassigned) [Ex-3.47, (3R,4R) or (3S,4S) or (3R,4S) or (3S,4R) 1-{6-chloro-2-[(1-cyclopropyl-5-methyl-1H-pyrazol-4-yl)amino]quinazolin-7-yl}-3,4-dimethylpiperidin-4-ol]
IC50: 10.2 nM

Cc1c(Nc2ncc3cc(Cl)c(N4CCN(C5COC5)[C@@H](C)C4)cc3n2)cnn1CCF [Ex-4.14, 6-chloro-N-[1-(2-fluoroethyl)-5-methyl-1H-pyrazol-4-yl]-7-[(3S)-3-methyl-4-(oxetan-3-yl)piperazin-1-yl]quinazolin-2-amine]
IC50: 0.969 nM

CC1(N2CCN(c3cc4nc(Nc5cnn(C6CC6(F)F)c5Cl)ncc4cc3Cl)CC2)CCOC1 (single isomer, unassigned) [Ex-3.60, (R or S) 6-chloro-N-(5-chloro-1-((S) or (R) 2,2-difluorocyclopropyl)-1H-pyrazol-4-yl)-7-(4-(3-methyltetra-hydrofuran-3-yl)piperazin-1-yl) quinazolin-2-amine]
IC50: 0.2 nM

Cc1c(Nc2ncc3cc(Cl)c(N4CCN(C5COCC5O)CC4)cc3n2)cnn1C1CC1(F)F (single isomer, unassigned) [Ex-6.39, (3S,4S) or (3R,4R) 4-[4-(6-chloro-2-{[1-(2,2-(R) or (S)difluorocyclopropyl)-5-methyl-1H-pyrazol-4-yl]amino}quinazolin-7-yl)piperazin-1-yl]oxolan-3-ol]
IC50: 0.65 nM

C[C@H]1COC(=O)N1c1ccc2cnc(Nc3cnn(C4CCN(C5COC5)CC4F)c3Cl)nc2c1 (stereo in doubt) [Ex-7.3, (4S)-3-[2-({5-chloro-1-[(3S,4S)-3-fluoro-1-(oxetan-3-yl)piperidin-4-yl]-1H-pyrazol-4-yl}amino)quinazolin-7-yl]-4-methyl-1,3-oxazolidin-2-one]
IC50: 0.976 nM
